The source of these data is patent publication US9540379B2 (priority 2011, dated 2017).

A word on the IC50: it is the concentration needed to halve the response being measured.

Bounds are passed on as bounds.

The target in the assay is PDE10A (Homo sapiens (Human), UniProt Q9Y233). The conditions noted are these: read-out: Inhibition of PDE10A, IC50.
Chain of PDE10A (Q9Y233 other isoform, or with tags, fused parts or gaps): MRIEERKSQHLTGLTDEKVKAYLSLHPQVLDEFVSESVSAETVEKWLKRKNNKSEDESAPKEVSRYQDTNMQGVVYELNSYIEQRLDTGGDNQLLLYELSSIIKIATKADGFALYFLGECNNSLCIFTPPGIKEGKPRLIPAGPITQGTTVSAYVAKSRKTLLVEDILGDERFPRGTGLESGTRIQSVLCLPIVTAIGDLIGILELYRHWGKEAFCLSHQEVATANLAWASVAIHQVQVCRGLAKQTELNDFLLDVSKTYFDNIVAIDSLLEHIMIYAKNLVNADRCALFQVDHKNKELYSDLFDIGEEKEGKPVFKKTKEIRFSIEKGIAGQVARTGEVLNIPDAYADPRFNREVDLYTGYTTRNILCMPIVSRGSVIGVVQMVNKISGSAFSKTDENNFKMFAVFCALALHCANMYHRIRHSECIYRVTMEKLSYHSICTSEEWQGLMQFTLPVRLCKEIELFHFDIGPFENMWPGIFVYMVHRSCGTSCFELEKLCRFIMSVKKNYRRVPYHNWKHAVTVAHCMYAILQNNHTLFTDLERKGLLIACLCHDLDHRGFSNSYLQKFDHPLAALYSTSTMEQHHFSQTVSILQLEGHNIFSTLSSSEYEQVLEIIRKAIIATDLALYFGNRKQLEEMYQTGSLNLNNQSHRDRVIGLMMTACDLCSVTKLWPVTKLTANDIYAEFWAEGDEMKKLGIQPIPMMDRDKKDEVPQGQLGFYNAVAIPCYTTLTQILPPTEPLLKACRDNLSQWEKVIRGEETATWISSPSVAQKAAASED
Method: Inhibition of Recombinant PDE10A (Expressed in Baculovirus/SF21 Cells)
PDE activity was determined in a one step procedure in microtiter plates. The reaction mixture of 100 μl contained 50 mM Tris-HCl/5 mM MgCl2 buffer (pH=7.4, Sigma, Deisenhofen, Germany; Merck, Darmstadt, Germany) 0.1 μM [3H]-cAMP (PerkinElmer, Shelton, USA) and the enzyme. Non-specific enzyme activity was determined without the enzyme.
The reaction was initiated by addition of the substrate solution and was carried out at 37° C. for 30 minutes. Enzymatic activity then was stopped by addition of 25 μl Ysi-SPA-beads (PerkinElmer, Shelton, USA). One h later the mixture was measured in a liquid scintillation counter for microtiter plates (Microbeta Trilux). The Biomek 2000 (Beckman) was used routinely for pipetting of the incubation mixture. […] For determination of IC50 values the Hill-plot, 2-parameter-model, was used.
Turning to `Cc1nc2ccc(Cl)cc2n2c(-c3cc(Cl)ccc3Cl)nnc12` [Example 6, 8-Chloro-1-(2,5-dichloro-phenyl)-4-methyl-[1,2,4]triazolo[4,3-a]quinoxaline], the IC50 came to 131 nM.
Take `CCCCOc1ccc(Cl)c(-c2nnc3c(C)nc4cc(Cl)ccc4n23)c1` [Example 23, 1-(5-Butoxy-2-chloro-phenyl)-7-chloro-4-methyl-[1,2,4]triazolo[4,3-a]quinoxaline]: the IC50 is greater than 1000 nM.
Then `Cc1nc2ccccc2n2c(-c3cc(OCCN4CCCCC4)ccc3Cl)nnc12` [Example 95, 1-[2-Chloro-5-(2-piperidin-1-yl-ethoxy)-phenyl]-4-methyl-[1,2,4]triazolo[4,3-a]quinoxaline], with greater than 1000 nM.
`Cc1nc2ccc(F)cc2n2c(-c3ccccc3F)nnc12` [Example 52, 8-Fluoro-1-(2-fluoro-phenyl)-4-methyl-[1,2,4]triazolo[4,3-a]quinoxaline]: the IC50 is 553 nM.
Then `CCCCOc1ccc(F)c(-c2nnc3c(C)nc4ccc(C(F)(F)F)cc4n23)c1` [Example 67, 1-(5-Butoxy-2-fluoro-phenyl)-4-methyl-8-trifluoromethyl-[1,2,4]triazolo[4,3-a]quinoxaline], with greater than 1000 nM; and `Cc1nc2ccc(Cl)cc2n2c(-c3ccccc3F)nnc12` [Example 2, 8-Chloro-1-(2-fluoro-phenyl)-4-methyl-[1,2,4]triazolo[4,3-a]quinoxaline], with 214 nM.
Take `Cc1nc2ccccc2n2c(-c3cc(Cl)ccc3Cl)nnc12` [Example 34, 1-(2,5-Dichloro-phenyl)-4-methyl-[1,2,4]triazolo[4,3-a]quinoxaline]: the IC50 came to 330 nM.
The result for `CCCCOc1ccc(F)c(-c2nnc3c(C)nc4ccc(Cl)cc4n23)c1` [Example 11, 1-(5-Butoxy-2-fluoro-phenyl)-8-chloro-4-methyl-[1,2,4]triazolo[4,3-a]quinoxaline] reads greater than 1000 nM.
The result for `Cc1cnccc1-c1nnc2c(C)nc3ccc(Cl)cc3n12` [Example 9, 8-Chloro-4-methyl-1-(3-methyl-pyridin-4-yl)-[1,2,4]triazolo[4,3-a]quinoxaline] reads 736 nM; that for `CCCCOc1ccc(C)c(-c2nnc3c(C)nc4cc(Cl)ccc4n23)c1` [Example 25, 1-(5-Butoxy-2-methyl-phenyl)-7-chloro-4-methyl-[1,2,4]triazolo[4,3-a]quinoxaline], greater than 1000 nM.
Then `Cc1nc2cc(OCc3ccc4ccccc4n3)ccc2n2c(-c3ccccc3Cl)nnc12` [Example 79, 1-(2-Chloro-phenyl)-4-methyl-7-(quinolin-2-ylmethoxy)-[1,2,4]triazolo[4,3-a]quinoxaline], with 1 nM; and `Cc1nc2ccc(Cl)cc2n2c(-c3cc(OCCCC(F)(F)F)ccc3Cl)nnc12` [Example 16, 8-Chloro-1-[2-chloro-5-(4,4,4-trifluoro-butoxy)-phenyl]-4-methyl-[1,2,4]triazolo[4,3-a]quinoxaline], with greater than 1000 nM.
`Cc1nc2ccc(Cl)cc2n2c(-c3cc(OCCCCF)ccc3F)nnc12` [Example 17, 8-Chloro-1-[2-fluoro-5-(4-fluoro-butoxy)-phenyl]-4-methyl-[1,2,4]triazolo[4,3-a]quinoxaline]: the IC50 was greater than 1000 nM.
Then `CCCCCCOc1ccc(C)c(-c2nnc3c(C)nc4ccc(Cl)cc4n23)c1` [Example 15, 8-Chloro-1-(5-hexyloxy-2-methyl-phenyl)-4-methyl-[1,2,4]triazolo[4,3-a]quinoxaline], with greater than 1000 nM.
For `COc1ccc(CCOc2ccc3c(c2)nc(C)c2nnc(-c4ccccc4Cl)n23)cc1OC` [Example 78, 1-(2-Chloro-phenyl)-7-[2-(3,4-dimethoxy-phenyl)-ethoxy]-4-methyl-[1,2,4]triazolo[4,3-a]quinoxaline], the IC50 was 48 nM.
For `Cc1nc2ccccc2n2c(-c3ccccc3F)nnc12` [Example 30, 1-(2-Fluoro-phenyl)-4-methyl-[1,2,4]triazolo[4,3-a]quinoxaline], the IC50 was 346 nM.
Then `Cc1nc2ccccc2n2c(-c3cc(OCCN4CCCC4)ccc3Cl)nnc12` [Example 96, 1-[2-Chloro-5-(2-pyrrolidin-1-yl-ethoxy)-phenyl]-4-methyl-[1,2,4]triazolo[4,3-a]quinoxaline], with greater than 1000 nM.
For `CCCCCCOc1ccc(C)c(-c2nnc3c(C)nc4cc(Cl)ccc4n23)c1` [Example 26, 7-Chloro-1-(5-hexyloxy-2-methyl-phenyl)-4-methyl-[1,2,4]triazolo[4,3-a]quinoxaline], the IC50 is greater than 1000 nM.
For `CCCCOc1ccc(F)c(-c2nnc3c(C)nc4cc(Cl)ccc4n23)c1` [Example 22, 1-(5-Butoxy-2-fluoro-phenyl)-7-chloro-4-methyl-[1,2,4]triazolo[4,3-a]quinoxaline], the IC50 was greater than 1000 nM.
The result for `Cc1nc2ccc(F)cc2n2c(-c3cc(C(F)(F)F)ccc3Cl)nnc12` [Example 57, 1-(2-Chloro-5-trifluoromethyl-phenyl)-8-fluoro-4-methyl-[1,2,4]triazolo[4,3-a]quinoxaline] reads greater than 1000 nM.
The result for `Cc1nc2ccc(Cl)cc2n2c(-c3ccccc3Cl)nnc12` [Example 1, 8-Chloro-1-(2-chloro-phenyl)-4-methyl-[1,2,4]triazolo[4,3-a]quinoxaline] reads 45 nM.
For `Cc1nc2ccccc2n2c(-c3cc(O)ccc3Cl)nnc12` [Example 50, 4-Chloro-3-(4-methyl-[1,2,4]triazolo[4,3-a]quinoxalin-1-yl)-phenol], the IC50 is 62 nM.
Regarding `CCCCOc1ccc(F)c(-c2nnc3c(C)nc4ccc(F)cc4n23)c1` [Example 58, 1-(5-Butoxy-2-fluoro-phenyl)-8-fluoro-4-methyl-[1,2,4]triazolo[4,3-a]quinoxaline], the IC50 was greater than 1000 nM.
Then `Cc1nc2ccccc2n2c(-c3cc(OCCN4CCOCC4)ccc3Cl)nnc12` [Example 91, 1-[2-Chloro-5-(2-morpholin-4-yl-ethoxy)-phenyl]-4-methyl-[1,2,4]triazolo[4,3-a]quinoxaline], with greater than 1000 nM.
Consider `CCCCCCOc1ccc(F)c(-c2nnc3c(C)nc4cc(Cl)ccc4n23)c1` [Example 24, 7-Chloro-1-(2-fluoro-5-hexyloxy-phenyl)-4-methyl-[1,2,4]triazolo[4,3-a]quinoxaline], for which the IC50 is greater than 1000 nM.
The result for `Cc1nc2ccc(OCc3ccc4ccccc4n3)cc2n2c(-c3ccccc3Cl)nnc12` [Example 80, 1-(2-Chloro-phenyl)-4-methyl-8-(quinolin-2-ylmethoxy)-[1,2,4]triazolo[4,3-a]quinoxaline] reads 10 nM; that for `Cc1nc2ccccc2n2c(-c3cc(OCC4CCC4)ccc3Cl)nnc12` [Example 47, 1-(2-Chloro-5-cyclobutylmethoxy-phenyl)-4-methyl-[1,2,4]triazolo[4,3-a]quinoxaline], greater than 1000 nM.
The result for `Cc1nc2cc(Cl)ccc2n2c(-c3cc(C(F)(F)F)ccc3Cl)nnc12` [Example 21, 7-Chloro-1-(2-chloro-5-trifluoromethyl-phenyl)-4-methyl-[1,2,4]triazolo[4,3-a]quinoxaline] reads greater than 1000 nM; that for `CCCCCCOc1ccc(F)c(-c2nnc3c(C)nc4ccc(F)cc4n23)c1` [Example 60, 8-Fluoro-1-(2-fluoro-5-hexyloxy-phenyl)-4-methyl-[1,2,4]triazolo[4,3-a]quinoxaline], greater than 1000 nM.
Regarding `CCCCOc1ccc(Cl)c(-c2nnc3c(C)nc4ccc(Cl)cc4n23)c1` [Example 12, 1-(5-Butoxy-2-chloro-phenyl)-8-chloro-4-methyl-[1,2,4]triazolo[4,3-a]quinoxaline], the IC50 was greater than 1000 nM.
As for `Cc1nc2ccccc2n2c(-c3cccc(Cl)c3Cl)nnc12` [Example 35, 1-(2,3-Dichloro-phenyl)-4-methyl-[1,2,4]triazolo[4,3-a]quinoxaline], the IC50 was determined as 360 nM.
Then `Cc1nc2cc(O)ccc2n2c(-c3ccccc3Cl)nnc12` [Example 76, 1-(2-Chloro-phenyl)-4-methyl-[1,2,4]triazolo[4,3-a]quinoxalin-7-ol], with 274 nM; and `Cc1nc2ccc(Cl)cc2n2c(-c3cc(OCCCO)ccc3Cl)nnc12` [Example 101, 3-[4-Chloro-3-(8-chloro-4-methyl-[1,2,4]triazolo[4,3-a]quinoxalin-1-yl)-phenoxy]-propan-1-ol], with 319 nM; and `Cc1ncccc1-c1nnc2c(C)nc3ccc(F)cc3n12` [Example 53, 8-Fluoro-4-methyl-1-(2-methyl-pyridin-3-yl)-[1,2,4]triazolo[4,3-a]quinoxaline], with 1000 nM.
The result for `COCCOc1ccc(F)c(-c2nnc3cnc4ccccc4n23)c1` [Example 109, 1-[2-Fluoro-5-(2-methoxy-ethoxy)-phenyl]-[1,2,4]triazolo[4,3-a]quinoxaline] reads greater than 1000 nM; that for `Cc1nc2ccccc2n2c(-c3cc(OCC4CC4)ccc3Cl)nnc12` [Example 48, 1-(2-Chloro-5-cyclopropylmethoxy-phenyl)-4-methyl-[1,2,4]triazolo[4,3-a]quinoxaline], greater than 1000 nM; that for `Cc1nc2cc(Cl)ccc2n2c(-c3c(F)cccc3F)nnc12` [Example 18, 7-Chloro-1-(2,6-difluoro-phenyl)-4-methyl-[1,2,4]triazolo[4,3-a]quinoxaline], 103 nM.
The result for `CC(=O)OCCCCOc1ccc(Cl)c(-c2nnc3c(C)nc4ccccc4n23)c1` [Example 89, Acetic acid 4-[4-chloro-3-(4-methyl-[1,2,4]triazolo[4,3-a]quinoxalin-1-yl)-phenoxy]-butyl ester] reads greater than 1000 nM; that for `Cc1nc2ccccc2n2c(-c3cc(OCC(C)O)ccc3Cl)nnc12` (centres unmarked) [Example 100, 1-[4-Chloro-3-(4-methyl-[1,2,4]triazolo[4,3-a]quinoxalin-1-yl)-phenoxy]-propan-2-ol], 784 nM.
As for `COc1ccc2c(c1)nc(C)c1nnc(-c3ccccc3F)n12` [Example 73, 1-(2-Fluoro-phenyl)-7-methoxy-4-methyl-[1,2,4]triazolo[4,3-a]quinoxaline], the IC50 came to 223 nM.
For `Cc1nc2ccccc2n2c(-c3cc(OCCc4ccccc4)ccc3Cl)nnc12` [Example 49, 1-(2-Chloro-5-phenethyloxy-phenyl)-4-methyl-[1,2,4]triazolo[4,3-a]quinoxaline], the IC50 was greater than 1000 nM.
